Patent US20250195530A1, “POLQ INHIBITORS” (ASTRAZENECA AB, priority 2022, published 2025)
Where two headings read alike, the source gives them in different places.

What was measured:
[1] = test system: DLD-1 BRCA2−/− cells; experiment: Homologous recombination synthetic lethal inhibition of proliferation, DLD-1 BRCA2-/- (Cell Titre Glo 3D); type: cell-based; details: for IC50: Homo sapiens
Outline: (§1)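 Read-out: CellTiter-Glo 3D luminescence, day 7 for wt DLD-1, day 12 for BRCA2−/−, about 8-9 population doublings each. Seeding 1,500 or 3,000 cells/mL respectively. Dose range 10 μM–0.51 nM, 3-fold, 10 points, with re-dosing on day 6. IC50 from curve fit.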

[2] = test system: DLD-1 cells; experiment: Inhibition of proliferation, DLD-1 BRCA2 wt control (Cell Titre Glo 3D); type: cell-based; details: for IC50: Homo sapiens
Outline: as §1

[3] = DLD-1, first proliferation column (c5), taken as DLD-1 BRCA2-/-, read-out: POLQ PD Prolif Lumin (converted)
[4] = DLD-1, second proliferation column (c6), taken as DLD-1 BRCA2 wt, read-out: POLQ PD Prolif Lumin (converted)
[5] = DLD-1, 288 h, DLD-1 BRCA2−/− cells, 12 days, read-out: POLQ PD Prolif Lumin BRCA2 −/− mean pIC50 (converted)
[6] = DLD-1, 168 h, DLD-1 BRCA2 wt cells, 7 days, read-out: POLQ PD Prolif Lumin DLD1 mean pIC50 (converted)
[7] = DLD-1, DLD-1 BRCA2 −/− cells, mean, read-out: POLQ PD Prolif Lumin BRCA2 −/− mean pIC50 (converted)
[8] = DLD-1, DLD1 BRCA2 wt cells, mean, read-out: POLQ PD Prolif Lumin DLD1 mean PIC50 (converted)
[9] = DLD-1, DLD-1 BRCA2 −/−, mean, read-out: POLQ PD Prolif Lumin BRCA2 −/− mean pIC50 (converted)
[10] = DLD-1, DLD1 BRCA2 wt, mean, read-out: POLQ PD Prolif Lumin DLD1 mean pIC50 (converted)

| Compound | IC50 [1, 5] | IC50 [2, 6] | also measured |
| --- | --- | --- | --- |
| Cc1ccnc(Cn2c(-c3cccc(OCCN4CC(O)C4)c3Cl)nc3c(OC4(C)CC4)ncnc32)c1 [Example T360, 1-(2-(2-chloro-3-(6-(1-methylcyclopropoxy)-9-((4-methylpyridin-2-yl)methyl)-9H-purin-8-yl)phenoxy)ethyl)azetidin-3-ol] | – | – | IC50 [1, 3]: 0.794 µM; IC50 [2, 4]: > 10 µM |
| Cc1cc(OCCCN2CCNCC2)ncc1-c1nc2c(OC3(C)CC3)ncnc2n1Cc1ccccc1 [Example G1, 9-benzyl-8-(4-methyl-6-(3-(piperazin-1-yl)propoxy)pyridin-3-yl)-6-(1-methylcyclopropoxy)-9H-purine] | 0.501 µM | 6.31 µM | – |
| CNCCOc1ccc(-c2nc3c(OC4(C)CC4)ncnc3n2Cc2ncc(C)s2)c(Cl)c1 [Example T34, 2-(3-chloro-4-(6-(1-methylcyclopropoxy)-9-((5-methylthiazol-2-yl)methyl)-9H-purin-8-yl)phenoxy)-N-methylethan-1-amine] | – | – | IC50 [1, 7]: 0.501 µM; IC50 [2, 8]: > 10 µM |
| COc1ccc(F)cc1Cn1c(-c2cccc(OCC(C)CC(=O)O)c2Cl)nc2c(OC3(C)CC3)ncnc21 (single isomer, unassigned) [Example U77, 4-(2-chloro-3-(9-(5-fluoro-2-methoxybenzyl)-6-(1-methylcyclopropoxy)-9H-purin-8-yl)phenoxy)-3-methylbutanoic acid] | – | – | IC50 [1, 9]: 0.00794 µM; IC50 [2, 10]: > 10 µM |
| Cc1ccnc(Cn2c(-c3ccc(OCCN4CC[C@@H](O)C4)cc3Cl)nc3c(OC4(C)CC4)ncnc32)c1 [Example T512, (R)-1-(2-(3-chloro-4-(6-(1-methylcyclopropoxy)-9-((4-methylpyridin-2-yl)methyl)-9H-purin-8-yl)phenoxy)ethyl)pyrrolidin-3-ol] | – | – | IC50 ([1]; DLD-1, first proliferation column (c5), DLD-1 BRCA2-/-, read-out: POLQ PD Prolif Lumin (converted)): 0.2 µM; IC50 ([2]; DLD-1, second proliferation column (c6), DLD-1 BRCA2 wt control, read-out: POLQ PD Prolif Lumin (converted)): > 10 µM |
| CC1(Oc2ncnc3c2nc(-c2ccc(OC4CC5(CNC5)C4)cc2Cl)n3Cc2ccccc2)CC1 [Example D34, 8-(4-((2-azaspiro[3.3]heptan-6-yl)oxy)-2-chlorophenyl)-9-benzyl-6-(1-methylcyclopropoxy)-9H-purine] | 0.2 µM | 3.98 µM | – |
| COc1ccc(Cl)cc1Cn1c(-c2cccc(CCC(=O)O)c2Cl)nc2c(OC3(C)CC3)ncnc21 [Example U64, 3-(2-chloro-3-(9-(5-chloro-2-methoxybenzyl)-6-(1-methylcyclopropoxy)-9H-purin-8-yl)phenyl)propanoic acid] | – | – | IC50 [1, 9]: 0.1 µM; IC50 [2, 10]: > 10 µM |
| CC1(Oc2ncnc3c2nc(-c2ccc(OCCN4CC5CCC(C4)N5)cc2Cl)n3Cc2ccccc2)CC1 [Example R4, 8-(4-(2-(3,8-diazabicyclo[3.2.1]octan-3-yl)ethoxy)-2-chlorophenyl)-9-benzyl-6-(1-methylcyclopropoxy)-9H-purine] | 0.126 µM | 3.16 µM | – |
| CC1(Oc2ncnc3c2nc(-c2ccc(O[C@H]4CNC[C@H]4F)cc2Cl)n3Cc2ccccc2)CC1 [Example D31, 9-benzyl-8-(2-chloro-4-(((3S,4R)-4-fluoropyrrolidin-3-yl)oxy)phenyl)-6-(1-methylcyclopropoxy)-9H-purine] | 0.2 µM | 7.94 µM | – |
| CC(c1cc(Cl)ccn1)n1c(-c2ccc(OCCN3CCNCC3)cc2Cl)nc2c(OC3(C)CC3)ncnc21 (single isomer, unassigned; isomer 1) [Example S6, 8-(2-chloro-4-(2-(piperazin-1-yl)ethoxy)phenyl)-9-(1-(4-chloropyridin-2-yl)ethyl)-6-(1-methylcyclopropoxy)-9H-purine (Isomer 1)] | – | – | POLQ PD Prolif Lumin BRCA2 −/− mean pIC50 ([1]; DLD-1 BRCA2−/− cells, 12 days): 6.5; POLQ PD Prolif Lumin DLD1 mean pIC50 ([2]; DLD-1 BRCA2 wt cells, 7 days): <5.0 |
| CC(C)Oc1ncnc2c1nc(-c1ccc(OCCN3CCN(C)CC3)cc1)n2Cc1ccccc1 [Example B1, 9-benzyl-6-isopropoxy-8-(4-(2-(4-methyl-piperazin-1-yl)ethoxy)phenyl)-9H-purine] | 1 µM | 7.94 µM | – |
| COc1c(OCCN2CCNCC2)ccc(-c2nc3c(OC4(C)CC4)ncnc3n2Cc2ccccc2)c1Cl [Example J3, 9-benzyl-8-(2-chloro-3-methoxy-4-(2-(piperazin-1-yl)ethoxy)phenyl)-6-(1-methylcyclopropoxy)-9H-purine] | 0.501 µM | 3.16 µM | – |
| CC(C)(C)Oc1cccc2c1nc(-c1ccc(OCCC(=O)O)cc1Cl)n2Cc1cccc(Cl)c1 [Example T288, 3-(4-(4-(tert-butoxy)-1-(3-chlorobenzyl)-1H-benzo[d]imidazol-2-yl)-3-chlorophenoxy)propanoic acid] | – | – | IC50 ([1]; DLD-1, DLD-1 BRCA2-/- proliferation, column head only partly shown, read-out: POLQ PD Prolif Lumin (converted)): 2 µM; IC50 ([2]; DLD-1, DLD-1 BRCA2 wt control proliferation, column head only partly shown, read-out: POLQ PD Prolif Lumin (converted)): > 10 µM |
| CC1(Oc2ncnc3c2nc(-c2cccc(OCCCOCC(=O)O)c2Cl)n3Cc2cccc(Cl)c2)CC1 [Example T304, 2-(3-(2-chloro-3-(9-(3-chlorobenzyl)-6-(1-methylcyclopropoxy)-9H-purin-8-yl)phenoxy)propoxy)acetic acid] | – | – | IC50 [1, 3]: 0.1 µM; IC50 [2, 4]: > 10 µM |
| Cc1ccnc(Cn2c(-c3ccc(OCCN4CCNCC4)cc3Cl)nc3c(OC(C)(C)C)cccc32)c1 [Example T609, 4-(tert-butoxy)-2-(2-chloro-4-(2-(piperazin-1-yl)ethoxy)phenyl)-1-((4-methylpyridin-2-yl)methyl)-1H-benzo[d]imidazole] | – | – | IC50 ([1]; DLD-1, first proliferation column, DLD-1 BRCA2-/-, read-out: POLQ PD Prolif Lumin (converted)): 1.58 µM; IC50 ([2]; DLD-1, second proliferation column, DLD-1 BRCA2 wt control, read-out: POLQ PD Prolif Lumin (converted)): > 10 µM |
| COc1cccnc1Cn1c(-c2ccc(OCCN3CCNCC3)cc2Cl)nc2c(OC3(C)CC3)ncnc21 [Example L10, 8-(2-chloro-4-(2-(piperazin-1-yl)ethoxy)phenyl)-9-((3-methoxypyridin-2-yl)methyl)-6-(1-methylcyclopropoxy)-9H-purine] | 3.16 µM | > 10 µM | – |
| C[C@H]1CN(CCOc2ccc(-c3nc4c(OC5(C)CC5)ncnc4n3Cc3ccccc3)c(Cl)c2)CCN1 [Example R3, (S)-9-benzyl-8-(2-chloro-4-(2-(3-methylpiperazin-1-yl)ethoxy)phenyl)-6-(1-methylcyclopropoxy)-9H-purine] | 0.0631 µM | 3.16 µM | – |
| Cc1cc(N2CC(N)C2)ncc1-c1nc2c(OC3(C)CC3)ncnc2n1Cc1ccccc1 [Example 19, 1-(5-(9-Benzyl-6-(1-methylcyclopropoxy)-9H-purin-8-yl)-4-methylpyridin-2-yl)azetidin-3-amine] | 0.501 µM | > 10 µM | – |
| CC1(Oc2ncnc3c2nc(-c2ccc(OCCN4CCNCC4)cc2Cl)n3Cc2ncccc2C#N)CC1 [Example K11, 2-((8-(2-chloro-4-(2-(piperazin-1-yl)ethoxy)phenyl)-6-(1-methylcyclopropoxy)-9H-purin-9-yl)methyl)nicotinonitrile] | 2 µM | > 10 µM | – |
| Cc1cnc(Cn2c(-c3cccc(OCCN(C)C)c3Cl)nc3c(OC4(C)CC4)ncnc32)s1 [Example T73, 2-(2-chloro-3-(6-(1-methylcyclopropoxy)-9-((5-methylthiazol-2-yl)methyl)-9H-purin-8-yl)phenoxy)-N,N-dimethylethan-1-amine] | – | – | IC50 [1, 7]: 0.631 µM; IC50 [2, 8]: > 10 µM |
| Cc1cc(O[C@H]2CCCNC2)ncc1-c1nc2c(OC3(C)CC3)ncnc2n1Cc1ccccc1 [Example G13, (S)-9-benzyl-8-(4-methyl-6-(piperidin-3-yloxy)pyridin-3-yl)-6-(1-methylcyclopropoxy)-9H-purine] | 0.501 µM | > 10 µM | – |
| CC1(Oc2ncnc3c2nc(-c2ccc(OCCN4CC(O)C4)cc2Cl)n3Cc2ccccc2)CC1 [Example H14, 1-(2-(4-(9-benzyl-6-(1-methylcyclopropoxy)-9H-purin-8-yl)-3-chlorophenoxy)ethyl)azetidin-3-ol] | 0.126 µM | 6.31 µM | – |
